Data: patent EP0292191A1, “2-(Substituted methyl)-1-alkylcarbapenem derivatives” (Merck & Co., Inc., priority 1987, dated 1988)

Tests used:
Details in all cases: relative to thienamycin (=1.0)
[1] = system: Enterococcus; assay: Agar disc-diffusion assay, relative antibacterial potency; format: cell-based
Experimental: (§1) The antibacterial activities of the compounds of this invention illustrated in the examples were determined using the following method.
(§2) Antibacterial activities were determined by the disc-diffusion assay described by Bauer et al., Amer. J. Clin. Pathol., 45, 493 (1966), except that an agar thickness of 0.2 cm was used. Thienamycin or imipenem was used as the internal standard. For maximum reproducibility, the inner, completely clear region of the zone of inhibition was measured. Inhibiting concentration at the edge of the zone was computed for each test compound using equation (3) (rearranged) reported by Humphrey and Lightbown in J. Gen. Microbiol., 7, 129 (1952), which takes into account differing molecular weights and resulting diffusion constants. Ratios of the geometric means of the inhibitory concentrations to that of thienamycin were determined for each test compound.
(§3) Antibacterial potencies were determined using standard agar disc diffusion assays and are reported relative to thienamycin (=1.0). Dehydropeptidase-I (DHP-I) susceptibilities were determined by the method of Kropp et al., Antimicrobial Agents Chemother., 22, 62-70 (1982), and are reported relative to thienamycin (=1.0).

[2] = system: Proteus (Ind. + and -); assay: as above; format: cell-based
Experimental: as §1, §2, §3

[3] = system: Enterobacter; assay: as above; format: cell-based
Experimental: as §1, §2, §3

[4] = system: E. coli; assay: as above; format: cell-based
Experimental: as §1, §2, §3

[5] = system: Klebsiella; assay: as above; format: cell-based
Experimental: as §1, §2, §3

[6] = system: S. aureus; assay: as above; format: cell-based
Experimental: as §1, §2, §3

[7] = system: Ps. aeruginosa; assay: as above; format: cell-based
Experimental: as §1, §2, §3

[8] = system: Serratia; assay: as above; format: cell-based
Experimental: as §1, §2, §3

[9] = system: Dehydropeptidase-I (DHP-I); assay: Dehydropeptidase-I susceptibility (method of Kropp et al.); format: in vitro ADME
Text: Antibacterial compounds of Formula I are of the broad class known as carbapenems or 1-carbadethiapenems. Certain of these carbapenems are susceptible to attack by a renal enzyme known as dehydropeptidase (DHP). This attack or degradation may reduce the efficacy of the carbapenem antibacterial agent. Inhibitors of DHP and their use with carbapenem antibacterial agents are disclosed in the prior art. See European Patent Applications No. 79102616.4 filed July 24, 1979 (Publication No. 0 010 573); 79102615.6, filed July 24, 1979 (Publication No. 0 007 614); and 82107174.3, filed August 9, 1982 (Publication No. 0 072 014).
as §3

Row | Structure (SMILES) | Relative Antibacterial Potencies [1] | Relative Antibacterial Potencies [2] | Relative Antibacterial Potencies [3] | Relative Antibacterial Potencies [4] | Relative Antibacterial Potencies [5] | Relative Antibacterial Potencies [6] | Relative Antibacterial Potencies [7] | Relative Antibacterial Potencies [8] | DHP-I susceptibility [9]
1 | CC(=O)OCC1=C(C(=O)O)N2C(=O)[C@H]([C@@H](C)O)[C@H]2[C@H]1C [Example 2, Potassium (1S,1′R,5R,6S)-2-acetoxymethyl-6-(1′-hydroxyethyl)-1-methylcarbapen-2-em-3-carboxylate] | 2.8 | 27.9 | 7.0 | 4.0 | 2.5 | 0.7 | 0.09 | 12.1 | 0.52
2 | CNC(=O)OCC1=C(C(=O)O)N2C(=O)[C@H]([C@@H](C)O)[C@H]2[C@H]1C [Example 5, Potassium (1S,1′R,5R,6S)-2-methylaminocarbonyl oxymethyl-6-(1′-hydroxyethyl)-1-methylcarbapen-2-em-3-carboxylate] | 3.7 | 16 | 9.8 | 5.7 | 7.0 | 0.8 | 0.2 | 16 | 0.59
3 | C[C@@H](O)[C@H]1C(=O)N2C(C(=O)O)=C(CN)[C@H](C)[C@H]12 [Example 9, (1S,1′R,5R,6S)-2-aminomethyl-6-(1′-hydroxyethyl)-1-methylcarbapen-2-em-3-carboxylic acid] | 0.3 | 0.2 | 0.3 | 0.2 | 0.2 | 0.6 | 0.4 | 0.2 | 0.06
4 | C[C@@H](O)[C@H]1C(=O)N2C(C(=O)O)=C(COC(N)=O)[C@H](C)[C@H]12 [Example 4, Potassium (1S,1′R,5R,6S)-2-aminocarbonyloxy methyl-6-(1′-hydroxyethyl)-1-methylcarbapen-2-em-3-carboxylate] | 5.7 | 14.9 | 22.6 | 6.1 | 7.0 | 0.9 | 0.4 | 32 | 0.39
5 | C[C@@H](O)[C@H]1C(=O)N2C(C(=O)O)=C(COC(=O)Nc3ccccc3)[C@H](C)[C@H]12 [Example 6, Potassium (1S,1′R,5R,6S)-2-phenylaminocarbonyloxymethyl-6-(1′-hydroxyethyl)-1-methylcarbapen-2-em-3-carboxylate] | 2.8 | 4.9 | 0.2 | 0.6 | 0.2 | 1.2 | 0.03 | 0.3 | 1.35
6 | C[C@@H](O)[C@H]1C(=O)N2C(C(=O)O)=C(CO)[C@H](C)[C@H]12 [Example 1, Potassium (1S,1′R,5R,6S)-2-hydroxymethyl-6-(1′-hydroxyethyl)-1-methylcarbapen-2-em-3-carboxylate] | 1.0 | 3.0 | 3.7 | 2.3 | 2.0 | 0.4 | 0.2 | 4.3 | 0.76
7 | C[C@@H](O)[C@H]1C(=O)N2C(C(=O)O)=C(CN=[N+]=[N-])[C@H](C)[C@H]12 [Example 3, Potassium (1S,1′R,5R,6S)-2-azidomethyl-6-(1′-hydroxyethyl)-1-methylcarbapen-2-em-3-carboxylate] | 2.0 | 29.9 | 11.3 | 9.2 | 4.3 | 1.4 | 0.06 | 22.6 | 7.29
8 | C[C@@H](O)[C@H]1C(=O)N2C(C(=O)[O-])=C(COC(=O)NCC[n+]3ccccc3)[C@H](C)[C@H]12 [Example 8, (1S,1′R,5R,6S)-6-(1′-hydroxyethyl)-1-methyl-2-(2˝-pyridiniumethylaminocarbonyloxymethyl)carbapen-2-em-3-carboxylic acid] | 2.3 | 2.5 | 2.1 | 0.93 | 1.1 | 0.87 | 0.33 | 2.1 | 0.05
9 | C[C@@H](O)[C@H]1C(=O)N2C(C(=O)O)=C(COC(=O)N(C)C)[C@H](C)[C@H]12 [Example 7, Potassium (1S,1′R,5R,6S)-2-dimethylamino carbonyloxymethyl-6-(1′-hydroxyethyl)-1-methylcarbapen-2-em-3-carboxylate] | 1.2 | 11.3 | 0.8 | 0.6 | 0.4 | 1.4 | 0.04 | 1.4 | 0.29
